pEC50: −log10 of the molar value. Read-outs that look alike come from different tables or passages of the source.
Columns and labels:
hGIPR = molecular target: T1, hGIPR (Homo sapiens, UniProt P48546); assay: hGIPR CreLuc assay in 0.5% and 100% plasma (CHO CRE-luciferase reporter cells); assay type: cell-based
T1 construct: expressed in transfected cells; host or cells: CHO CRE-luciferase reporter cells
T1 sequence (P48546 22-466): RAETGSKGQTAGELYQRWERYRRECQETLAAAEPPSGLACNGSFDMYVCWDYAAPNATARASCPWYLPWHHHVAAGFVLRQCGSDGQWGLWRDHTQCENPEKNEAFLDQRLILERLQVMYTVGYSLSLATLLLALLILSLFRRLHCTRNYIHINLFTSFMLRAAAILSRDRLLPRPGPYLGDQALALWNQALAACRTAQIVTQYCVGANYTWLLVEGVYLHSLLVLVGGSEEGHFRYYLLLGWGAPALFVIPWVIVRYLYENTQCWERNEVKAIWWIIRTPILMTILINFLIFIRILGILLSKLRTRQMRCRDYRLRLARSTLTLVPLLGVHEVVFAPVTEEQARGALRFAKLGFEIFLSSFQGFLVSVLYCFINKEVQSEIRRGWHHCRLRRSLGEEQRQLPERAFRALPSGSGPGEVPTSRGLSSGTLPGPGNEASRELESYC

[1] = Solubility in 0.1 M phosphate buffer at pH 7; assay type: physicochemical; conditions: 0.1 M phosphate buffer at pH 7, 10 mg/mL final peptide concentration, shaking 2 hours at room temperature, peptides as TFA-salts, measured sample pH 6.5-7.0
hGLP1R = molecular target: T2, hGLP1R (Homo sapiens, UniProt P43220); assay: hGLP1R CreLuc assay in 0.5% and 100% plasma (HEK-293 CRE-luciferase reporter cells); assay type: cell-based; conditions: HEK-293 reporter cells
T2 construct: expressed in transfected cells; host or cells: HEK-293 CRE-luciferase reporter cells
T2 sequence (P43220 24-463): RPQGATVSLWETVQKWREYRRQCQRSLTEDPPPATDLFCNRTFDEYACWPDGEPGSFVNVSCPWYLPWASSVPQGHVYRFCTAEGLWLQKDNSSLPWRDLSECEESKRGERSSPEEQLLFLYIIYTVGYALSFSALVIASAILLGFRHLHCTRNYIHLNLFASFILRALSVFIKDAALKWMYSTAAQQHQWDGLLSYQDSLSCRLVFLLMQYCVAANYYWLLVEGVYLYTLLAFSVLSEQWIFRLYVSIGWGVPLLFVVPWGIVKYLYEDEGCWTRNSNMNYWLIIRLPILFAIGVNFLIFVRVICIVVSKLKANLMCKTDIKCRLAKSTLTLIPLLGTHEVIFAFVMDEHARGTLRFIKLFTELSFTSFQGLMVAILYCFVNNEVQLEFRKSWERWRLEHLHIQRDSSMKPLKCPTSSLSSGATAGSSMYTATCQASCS

[2] = Mouse PK after intravenous application; assay type: in vivo; conditions: plasma, male NMRI mice, intravenous 30-60 nmol/kg, non-compartmental analysis
Procedure: Pharmacokinetic parameters of the peptides were determined after intravenous application to NMRI mice (Naval Medical Research Institute mice). Male NMRI mice were obtained from Janvier Laboratories (France) weighing 30 g to 40 g. Mice were housed in standard cages with a 12:12 hours light:dark cycle and standard food and water access ad libitum. Each test peptide was dissolved in 50 mM phosphate buffer (pH 7.4)/3.5% mannitol. Intravenous application of 30-60 nmol/kg was performed via the tail vein. Serial blood samples from conscious mice were collected from the saphenous vein in EDTA-containing vials at different time points up to 56 hours post-dosing. Subsequently, plasma was prepared by centrifugation for 5 minutes at approximately 5000 rpm and stored at −20° C. until quantification of the peptide plasma levels by liquid chromatography mass spectrometry (LC-MS). Individual plasma concentration-time profiles were analysed by a non-compartmental approach and the resulting pharmacokinetic parameters were calculated.

hNPY2R = molecular target: T3, hNPY2R (Homo sapiens, UniProt P49146); assay: hNPY2R CreLuc assay in 0.5% and 100% plasma (HEK-293 CRE-luciferase reporter cells); assay type: cell-based; conditions: 100% human plasma, HEK-293 reporter cells, read-out: hNPY2R 100% hP
T3 construct: expressed in transfected cells; host or cells: HEK-293 CRE-luciferase reporter cells
T3 sequence (P49146 1-381): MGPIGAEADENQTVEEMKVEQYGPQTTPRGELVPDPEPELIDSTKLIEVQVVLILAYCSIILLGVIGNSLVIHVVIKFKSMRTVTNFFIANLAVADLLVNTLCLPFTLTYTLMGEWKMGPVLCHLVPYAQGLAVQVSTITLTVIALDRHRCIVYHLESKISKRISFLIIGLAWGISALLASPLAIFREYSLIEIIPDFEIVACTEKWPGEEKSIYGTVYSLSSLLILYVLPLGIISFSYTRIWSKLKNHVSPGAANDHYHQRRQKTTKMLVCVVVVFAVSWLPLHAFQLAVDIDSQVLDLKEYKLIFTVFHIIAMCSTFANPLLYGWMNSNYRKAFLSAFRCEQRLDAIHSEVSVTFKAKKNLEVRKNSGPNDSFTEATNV

[3] = 0.5% human plasma, read-out: hGIPR 0.5% hP
[4] = 0.5% human plasma, read-out: hGLP1R 0.5% hP

pEC50 (hGIPR; [3]) | pEC50 (hGIPR; 100% human plasma, read-out: hGIPR 100% hP) | solubility at 2 h [1] [mg/mL] | pEC50 (hGLP1R; [4]) | MRT [2] [h] | pEC50 (hNPY2R) | pEC50 (hGLP1R; 100% human plasma, read-out: hGLP1R 100% hP) | solubility ([1]; read-out: Solubility) [mg/mL] | Compound
9.70 | 8.55 | 4.2 | 9.40 | 10 | – | – | – | CC[C@H](C)[C@H](NC(=O)[C@H](CC(C)C)NC(=O)[C@H](Cc1c[nH]cn1)NC(=O)[C@H](CCCNC(=N)N)NC(=O)[C@@H](NC(=O)[C@H](Cc1ccccc1)NC(=O)[C@H](C)NC(=O)C(C)(C)NC(=O)[C@H](CCC(N)=O)NC(=O)[C@H](C)NC(=O)[C@H](CCC(N)=O)NC(=O)[C@H](CCCCN)NC(=O)[C@H](CCC(=O)O)NC(=O)[C@H](CC(C)C)NC(=O)C(C)(C)NC(=O)[C@@H](NC(=O)[C@H](CO)NC(=O)[C@H](Cc1ccc(O)cc1)NC(=O)[C@H](CC(=O)O)NC(=O)[C@H](CO)NC(=O)[C@@H](NC(=O)[C@H](Cc1ccccc1)NC(=O)[C@@H](NC(=O)CNC(=O)[C@H](CCC(=O)O)NC(=O)C(C)(C)NC(=O)[C@@H](N)Cc1ccc(O)cc1)[C@@H](C)O)[C@@H](C)O)[C@@H](C)CC)C(C)C)C(=O)N[C@@H](CC(N)=O)C(=O)N[C@@H](CCCCNC(=O)[C@@H](N)CCCCNC(=O)CC[C@H](NC(=O)CC[C@H](NC(=O)CC[C@H](NC(=O)CC[C@H](NC(=O)CC[C@H](NC(=O)CC[C@H](NC(=O)CC[C@H](NC(=O)CCCCCCCCCCCCCCCCC(=O)O)C(=O)O)C(=O)O)C(=O)O)C(=O)O)C(=O)O)C(=O)O)C(=O)O)C(=O)NC(C)(C)C(=O)N[C@H](C(=O)N[C@@H](CCCNC(=N)N)C(=O)N[C@@H](CCC(N)=O)C(=O)N[C@@H](CCCNC(=N)N)C(=O)N[C@@H](Cc1ccc(O)cc1)C(N)=O)[C@@H](C)O [Compound 121, Y-Aib-E-G-T-F-T-S-D-Y-S-I-Aib-L-E-K-Q-A-Q-Aib-A-F-V-R-H-L-I-N-K(1,3)-Aib-T-R-Q-R-Y-NH2.C18DA-gGlu-gGlu-gGlu-gGlu-gGlu-gGlu-gGlu-eLys(1,2)]
9.22 | – | 3.8 | – | 7.3 | 7.55 | – | – | CC[C@H](C)[C@H](NC(=O)[C@H](CC(C)C)NC(=O)[C@H](Cc1c[nH]cn1)NC(=O)[C@H](CCCNC(=N)N)NC(=O)[C@@H](NC(=O)[C@H](Cc1ccccc1)NC(=O)[C@H](C)NC(=O)C(C)(C)NC(=O)[C@H](CCC(=O)O)NC(=O)[C@H](C)NC(=O)[C@H](CCC(N)=O)NC(=O)[C@H](CCCCN)NC(=O)[C@H](CCC(=O)O)NC(=O)[C@H](CC(C)C)NC(=O)C(C)(C)NC(=O)[C@@H](NC(=O)[C@H](CO)NC(=O)[C@H](Cc1ccc(O)cc1)NC(=O)[C@H](CC(=O)O)NC(=O)[C@H](CO)NC(=O)[C@@H](NC(=O)[C@H](Cc1ccccc1)NC(=O)[C@@H](NC(=O)CNC(=O)[C@H](CCC(=O)O)NC(=O)C(C)(C)NC(=O)[C@@H](N)Cc1ccc(O)cc1)[C@@H](C)O)[C@@H](C)O)[C@@H](C)CC)C(C)C)C(=O)N[C@@H](CC(N)=O)C(=O)N[C@@H](CCCCNC(=O)[C@@H](N)CCCCNC(=O)CC[C@H](NC(=O)CC[C@H](NC(=O)CC[C@H](NC(=O)CC[C@H](NC(=O)CC[C@H](NC(=O)CC[C@H](NC(=O)CCCCCCCCCCCCCCCCC(=O)O)C(=O)O)C(=O)O)C(=O)O)C(=O)O)C(=O)O)C(=O)O)C(=O)NC(C)(C)C(=O)N[C@H](C(=O)N[C@@H](CCCNC(=N)N)C(=O)N[C@@H](CCC(N)=O)C(=O)N[C@@H](CCCNC(=N)N)C(=O)N[C@@H](Cc1ccc(O)cc1)C(N)=O)[C@@H](C)O [Compound 10, Y-Aib-E-G-T-F-T-S-D-Y-S-I-Aib-L-E-K-Q-A-E-Aib-A-F-V-R-H-L-I-N-K(1,3)-Aib-T-R-Q-R-Y-NH2.C18DA-gGlu-gGlu-gGlu-gGlu-gGlu-gGlu-eLys(1,2)]
9.52 | – | 0.4 | 9.40 | 7.4 | – | 8.74 | – | CC[C@H](C)[C@H](NC(=O)[C@H](CC(C)C)NC(=O)[C@H](Cc1c[nH]cn1)NC(=O)[C@H](CCCNC(=N)N)NC(=O)[C@@H](NC(=O)[C@H](Cc1ccccc1)NC(=O)[C@H](C)NC(=O)C(C)(C)NC(=O)[C@H](CCC(N)=O)NC(=O)[C@H](C)NC(=O)[C@H](CCC(N)=O)NC(=O)[C@H](CCCCN)NC(=O)[C@H](CCC(=O)O)NC(=O)[C@H](CC(C)C)NC(=O)C(C)(C)NC(=O)[C@@H](NC(=O)[C@H](CO)NC(=O)[C@H](Cc1ccc(O)cc1)NC(=O)[C@H](CC(=O)O)NC(=O)[C@H](CO)NC(=O)[C@@H](NC(=O)[C@H](Cc1ccccc1)NC(=O)[C@@H](NC(=O)CNC(=O)[C@H](CCC(=O)O)NC(=O)C(C)(C)NC(=O)[C@@H](N)Cc1ccc(O)cc1)[C@@H](C)O)[C@@H](C)O)[C@@H](C)CC)C(C)C)C(=O)N[C@@H](CC(N)=O)C(=O)N[C@@H](CCCCNC(=O)CC[C@H](NC(=O)CC[C@H](NC(=O)CC[C@H](NC(=O)CC[C@H](NC(=O)CCCCCCCCCCCCCCCCC(=O)O)C(=O)O)C(=O)O)C(=O)O)C(=O)O)C(=O)NC(C)(C)C(=O)N[C@H](C(=O)N[C@@H](CCCNC(=N)N)C(=O)N[C@@H](CCC(N)=O)C(=O)N[C@@H](CCCNC(=N)N)C(=O)N[C@@H](Cc1ccc(O)cc1)C(N)=O)[C@@H](C)O [Compound 77, Y-Aib-E-G-T-F-T-S-D-Y-S-I-Aib-L-E-K-Q-A-Q-Aib-A-F-V-R-H-L-I-N-K(1,3)-Aib-T-R-Q-R-Y-NH2.C18DA-gGlu-gGlu-gGlu-gGlu(1,2)]
– | – | – | – | 4.6 | – | – | 4.8 | CC[C@H](C)[C@H](NC(=O)[C@H](CC(C)C)NC(=O)[C@H](Cc1c[nH]cn1)NC(=O)[C@H](CCCNC(=N)N)NC(=O)[C@@H](NC(=O)[C@H](Cc1ccccc1)NC(=O)[C@H](C)NC(=O)C(C)(C)NC(=O)[C@H](CCC(N)=O)NC(=O)[C@H](C)NC(=O)[C@H](CCC(N)=O)NC(=O)[C@H](CCCCN)NC(=O)[C@H](CCC(=O)O)NC(=O)[C@H](CC(C)C)NC(=O)C(C)(C)NC(=O)[C@@H](NC(=O)[C@H](CO)NC(=O)[C@H](Cc1ccc(O)cc1)NC(=O)[C@H](CC(=O)O)NC(=O)[C@H](CO)NC(=O)[C@@H](NC(=O)[C@H](Cc1ccccc1)NC(=O)[C@@H](NC(=O)CNC(=O)[C@H](CCC(=O)O)NC(=O)C(C)(C)NC(=O)[C@@H](N)Cc1ccc(O)cc1)[C@@H](C)O)[C@@H](C)O)[C@@H](C)CC)C(C)C)C(=O)N[C@@H](CC(N)=O)C(=O)N[C@@H](CCCCNC(=O)CCCCCNC(=O)CC[C@H](NC(=O)CC[C@H](NC(=O)CC[C@H](NC(=O)CC[C@H](NC(=O)CC[C@H](NC(=O)CCCCCCCCCCCCCCCCC(=O)O)C(=O)O)C(=O)O)C(=O)O)C(=O)O)C(=O)O)C(=O)N[C@@H](CC(C)C)C(=O)N[C@H](C(=O)N[C@@H](CCCNC(=N)N)C(=O)N[C@@H](CCC(N)=O)C(=O)N[C@@H](CCCNC(=N)N)C(=O)N[C@@H](Cc1ccc(O)cc1)C(N)=O)[C@@H](C)O [Compound 69, Y-Aib-E-G-T-F-T-S-D-Y-S-I-Aib-L-E-K-Q-A-Q-Aib-A-F-V-R-H-L-I-N-K(1,3)-L-T-R-Q-R-Y-NH2.C18DA-gGlu-gGlu-gGlu-gGlu-gGlu-AHX(1,2)]
